Assay results as given in article PMC9898036, “VIP152 is a selective CDK9 inhibitor with pre-clinical in vitro and in vivo efficacy in chronic lymphocytic leukemia” (Leukemia, 2022).

Legend:
HG-3 cell line = test: Nuclear CDK9 co-immunoprecipitation (LC-MS/MS proteomics, western blot); format: cell-based, human
Method: HG-3 cell line was treated with 1 µM VIP152 or DMSO for 2 h; nuclei were isolated using the Nuclear Complex Co-IP Kit (Active Motif) according to the manufacturer’s protocol. Nuclear lysate was immunoprecipitated using a CDK9 antibody (ab239364 - Abcam) or isotype control (3900 S – Cell Signaling Technology) with Dynabeads™ Protein G Immunoprecipitation Kit (10007D – ThermoFisher Scientific). Beads were submitted for proteomics to the Ohio State University Proteomics Center at the Campus Chemical Instrument Center. Full proteomic methods are available in the supplementary methods section.
Having observed the transcriptomic effects of VIP152 inhibition, we hypothesized a change in the P-TEFb complex would occur validating the mechanism of this agent. Previously, Dow et al. described changes in P-TEFb nuclear complexes with flavopiridol treatment; specifically, they observed loss of nuclear speckles of P-TEFb complexes containing HEXIM1, a major component of the 7SK-RNA complex that inhibits P-TEFb. We observed an increase in the 42 kDa and 55 kDa isoforms of CDK9, as well as Cyclin T1, in the nuclear fraction following treatment (Fig. 4A, B). […] Next, a nuclear immunoprecipitation of CDK9 after a two-hour drugging in the HG-3 cell line (n = 3) was performed, followed by liquid chromatography with tandem mass spectrometry (LC-MS/MS). We detected 226 differentially co-localized proteins and again observed an enrichment in the treated fraction for P-TEFb (Fig. 4B, C). […] These findings were validated via western blot in the MEC-1 and HG-3 cell lines (Supplementary Fig. 9). […] Finally, to appreciate the effect of inhibition on the association with the inhibitory 7SK-RNA complex, we performed reciprocal nuclear co-immunoprecipitation of CDK9 and HEXIM1 (Fig. 4E and Supplementary Fig. 10). […] This decrease in 7SK association due to inhibition is consistent with other work characterizing the disruption of the 7SK complex as a result of cellular stresses.
MSGF+ search engine against a reviewed UniProt human proteome (downloaded 12/07/2020) containing the cRAP and MaxQuant contaminant FASTAs32. Search parameters included: full trypsin digest, 1 missed cleavage, carbamidomethylation of cysteine as a fixed modification and oxidation of methionine as a variable modification with precursor and fragment mass tolerances of 10 ppm and 5 Da. PSM rescoring was performed with Percolator and protein inference was performed with Epifany across all samples, setting peptide and protein false discovery rates to 0.05. […]
All data analysis was performed with R (version 3.6.2) with various packages and is included in supplemental material (zipped File_S1). […] Data was quantile normalized, and significance (p-value < 0.05) determined by a modified exact test. […]

Dopamine D4.2 = Dopamine D4.2 (Homo sapiens, UniProt P21917, DEL265-296); test: Eurofins Diversity Panel; format: binding; conditions: hum, Conc. 10 μM
[1] = system: GABAA, Flunitrazepam, Central; test: Eurofins Diversity Panel; format: binding; conditions: rat, Conc. 10 μM
Prostanoid EP4 = Prostanoid EP4 (Homo sapiens, UniProt P35408); test: Eurofins Diversity Panel; format: binding; conditions: hum, Conc. 10 μM
Thyroid Hormone = test: Eurofins Diversity Panel; format: binding; conditions: rat, Conc. 10 μM
RET(M918T) = RET(M918T) (Homo sapiens, UniProt P07949, M918T); test: KINOMEscan: RET(M918T); format: binding; conditions: 100 nM, read-out: Percent Control
RIPK4 = RIPK4 (Homo sapiens, UniProt P57078); test: KINOMEscan: RIPK4; format: binding; conditions: 100 nM, read-out: Percent Control
SRPK3 = SRPK3 (Homo sapiens, UniProt Q9UPE1); test: KINOMEscan: SRPK3; format: binding; conditions: 100 nM, read-out: Percent Control
TRKB = TRKB (Homo sapiens, UniProt Q16620); test: KINOMEscan: TRKB; format: binding; conditions: 100 nM, read-out: Percent Control
VRK2 = VRK2 (Homo sapiens, UniProt Q86Y07); test: KINOMEscan: VRK2; format: binding; conditions: 100 nM, read-out: Percent Control
ZAK = ZAK (Homo sapiens, UniProt Q9NYL2); test: KINOMEscan: ZAK; format: binding; conditions: 100 nM, read-out: Percent Control
BLK = BLK (Homo sapiens, UniProt P51451); test: KINOMEscan: BLK; format: binding; conditions: 1000 nM, read-out: Percent Control
CAMK1 = CAMK1 (Homo sapiens, UniProt Q14012); test: KINOMEscan: CAMK1; format: binding; conditions: 1000 nM, read-out: Percent Control
CSNK1E = CSNK1E (Homo sapiens, UniProt P49674); test: KINOMEscan: CSNK1E; format: binding; conditions: 1000 nM, read-out: Percent Control
EGFR(G719S) = EGFR(G719S) (Homo sapiens, UniProt P00533, G719S); test: KINOMEscan: EGFR(G719S); format: binding; conditions: 1000 nM, read-out: Percent Control
EPHB3 = EPHB3 (Homo sapiens, UniProt P54753); test: KINOMEscan: EPHB3; format: binding; conditions: 1000 nM, read-out: Percent Control
HASPIN = HASPIN (Homo sapiens, UniProt Q8TF76); test: KINOMEscan: HASPIN; format: binding; conditions: 1000 nM, read-out: Percent Control
JNK3 = JNK3 (Homo sapiens, UniProt P53779); test: KINOMEscan: JNK3; format: binding; conditions: 1000 nM, read-out: Percent Control
LATS2 = LATS2 (Homo sapiens, UniProt Q9NRM7); test: KINOMEscan: LATS2; format: binding; conditions: 1000 nM, read-out: Percent Control
MERTK = MERTK (Homo sapiens, UniProt Q12866); test: KINOMEscan: MERTK; format: binding; conditions: 1000 nM, read-out: Percent Control
MERTK, sequence (Q12866 21-999): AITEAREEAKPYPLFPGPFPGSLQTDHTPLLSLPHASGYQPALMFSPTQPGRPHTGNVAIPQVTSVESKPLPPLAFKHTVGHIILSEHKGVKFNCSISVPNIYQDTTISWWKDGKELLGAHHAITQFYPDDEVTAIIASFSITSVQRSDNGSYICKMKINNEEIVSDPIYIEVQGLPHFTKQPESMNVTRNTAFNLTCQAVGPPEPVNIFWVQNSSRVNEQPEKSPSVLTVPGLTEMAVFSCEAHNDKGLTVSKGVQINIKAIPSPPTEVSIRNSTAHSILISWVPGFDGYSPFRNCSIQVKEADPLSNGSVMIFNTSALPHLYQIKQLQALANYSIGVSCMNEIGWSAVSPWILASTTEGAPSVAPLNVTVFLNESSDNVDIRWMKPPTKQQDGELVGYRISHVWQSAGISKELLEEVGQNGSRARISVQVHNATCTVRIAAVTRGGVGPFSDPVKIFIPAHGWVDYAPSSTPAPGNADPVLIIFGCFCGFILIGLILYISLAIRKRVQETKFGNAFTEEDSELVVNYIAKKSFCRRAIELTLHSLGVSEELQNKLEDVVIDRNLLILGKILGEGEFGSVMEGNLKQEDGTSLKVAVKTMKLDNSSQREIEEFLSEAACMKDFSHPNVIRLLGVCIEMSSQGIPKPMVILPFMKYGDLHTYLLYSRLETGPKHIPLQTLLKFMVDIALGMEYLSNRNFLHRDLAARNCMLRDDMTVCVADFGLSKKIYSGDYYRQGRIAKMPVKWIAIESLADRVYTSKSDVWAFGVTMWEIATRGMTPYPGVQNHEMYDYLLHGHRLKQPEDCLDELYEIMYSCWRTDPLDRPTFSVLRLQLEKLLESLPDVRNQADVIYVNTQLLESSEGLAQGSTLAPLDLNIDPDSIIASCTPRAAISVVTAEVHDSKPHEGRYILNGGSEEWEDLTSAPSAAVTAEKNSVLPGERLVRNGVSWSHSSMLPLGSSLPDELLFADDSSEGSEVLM

LATS2, sequence (Q9NRM7 whole entry): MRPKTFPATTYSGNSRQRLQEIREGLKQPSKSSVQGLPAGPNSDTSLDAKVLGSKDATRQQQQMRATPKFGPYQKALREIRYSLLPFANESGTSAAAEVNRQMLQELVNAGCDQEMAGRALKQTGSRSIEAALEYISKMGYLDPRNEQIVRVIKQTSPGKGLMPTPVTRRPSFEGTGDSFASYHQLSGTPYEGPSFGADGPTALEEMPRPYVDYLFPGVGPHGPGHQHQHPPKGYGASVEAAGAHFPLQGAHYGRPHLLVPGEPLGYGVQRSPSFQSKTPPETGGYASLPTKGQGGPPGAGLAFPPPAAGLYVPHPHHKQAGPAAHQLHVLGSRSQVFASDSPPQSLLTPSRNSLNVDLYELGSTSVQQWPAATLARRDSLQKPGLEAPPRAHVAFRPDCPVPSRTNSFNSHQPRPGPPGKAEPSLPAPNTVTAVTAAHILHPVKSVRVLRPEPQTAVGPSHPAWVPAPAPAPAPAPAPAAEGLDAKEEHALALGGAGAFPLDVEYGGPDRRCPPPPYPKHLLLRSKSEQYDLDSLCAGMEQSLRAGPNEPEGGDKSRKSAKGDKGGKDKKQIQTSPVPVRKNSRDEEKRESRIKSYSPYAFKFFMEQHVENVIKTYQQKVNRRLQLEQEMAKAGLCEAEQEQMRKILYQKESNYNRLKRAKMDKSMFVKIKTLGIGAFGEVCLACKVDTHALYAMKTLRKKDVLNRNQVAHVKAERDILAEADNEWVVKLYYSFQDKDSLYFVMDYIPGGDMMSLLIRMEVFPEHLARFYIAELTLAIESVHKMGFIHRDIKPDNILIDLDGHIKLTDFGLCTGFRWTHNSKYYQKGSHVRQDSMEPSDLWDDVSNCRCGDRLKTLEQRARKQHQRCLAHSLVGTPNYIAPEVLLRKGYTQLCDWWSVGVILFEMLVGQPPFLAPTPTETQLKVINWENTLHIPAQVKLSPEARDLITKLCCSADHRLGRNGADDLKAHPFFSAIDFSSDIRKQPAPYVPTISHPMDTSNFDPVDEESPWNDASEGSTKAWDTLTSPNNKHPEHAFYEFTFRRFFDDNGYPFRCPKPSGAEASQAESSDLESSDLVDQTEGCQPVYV
CSNK1E, sequence (P49674 whole entry): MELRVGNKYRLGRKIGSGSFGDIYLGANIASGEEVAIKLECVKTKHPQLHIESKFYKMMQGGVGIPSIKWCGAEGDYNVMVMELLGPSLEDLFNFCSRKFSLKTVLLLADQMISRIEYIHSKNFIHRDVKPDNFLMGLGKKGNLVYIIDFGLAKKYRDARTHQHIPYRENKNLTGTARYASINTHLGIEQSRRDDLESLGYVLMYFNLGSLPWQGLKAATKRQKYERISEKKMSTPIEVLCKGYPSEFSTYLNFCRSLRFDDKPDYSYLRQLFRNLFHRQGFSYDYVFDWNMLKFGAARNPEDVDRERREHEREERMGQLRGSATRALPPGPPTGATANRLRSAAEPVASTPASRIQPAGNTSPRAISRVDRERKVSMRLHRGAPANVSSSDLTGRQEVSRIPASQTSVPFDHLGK
Prostanoid EP4, sequence (P35408 whole entry): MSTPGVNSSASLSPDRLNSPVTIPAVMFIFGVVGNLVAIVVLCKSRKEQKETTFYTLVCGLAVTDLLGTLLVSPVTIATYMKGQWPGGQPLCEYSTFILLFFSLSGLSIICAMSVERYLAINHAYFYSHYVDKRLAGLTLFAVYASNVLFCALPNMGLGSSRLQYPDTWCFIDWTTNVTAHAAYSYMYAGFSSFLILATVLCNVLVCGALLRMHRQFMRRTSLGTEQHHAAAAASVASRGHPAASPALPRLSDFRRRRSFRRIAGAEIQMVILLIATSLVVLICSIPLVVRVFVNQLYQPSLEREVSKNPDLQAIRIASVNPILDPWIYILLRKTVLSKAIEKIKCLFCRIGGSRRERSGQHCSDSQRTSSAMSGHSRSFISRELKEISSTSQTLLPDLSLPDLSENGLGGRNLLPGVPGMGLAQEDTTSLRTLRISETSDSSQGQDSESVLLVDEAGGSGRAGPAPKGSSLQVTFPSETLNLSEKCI
VRK2, sequence (Q86Y07 whole entry): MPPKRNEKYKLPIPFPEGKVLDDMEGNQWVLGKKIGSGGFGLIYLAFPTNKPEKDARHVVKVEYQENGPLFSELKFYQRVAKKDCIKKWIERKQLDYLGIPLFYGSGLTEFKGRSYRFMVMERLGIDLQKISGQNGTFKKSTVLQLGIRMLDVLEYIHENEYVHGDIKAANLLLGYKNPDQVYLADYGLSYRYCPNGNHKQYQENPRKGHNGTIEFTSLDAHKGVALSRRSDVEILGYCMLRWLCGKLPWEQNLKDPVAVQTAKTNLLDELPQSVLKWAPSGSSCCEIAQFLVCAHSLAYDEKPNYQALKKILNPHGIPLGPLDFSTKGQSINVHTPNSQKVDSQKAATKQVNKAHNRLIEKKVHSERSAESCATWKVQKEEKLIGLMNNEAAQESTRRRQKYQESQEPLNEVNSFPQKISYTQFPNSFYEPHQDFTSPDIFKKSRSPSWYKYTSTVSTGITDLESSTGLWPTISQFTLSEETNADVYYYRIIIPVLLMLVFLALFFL
JNK3, sequence (P53779 whole entry): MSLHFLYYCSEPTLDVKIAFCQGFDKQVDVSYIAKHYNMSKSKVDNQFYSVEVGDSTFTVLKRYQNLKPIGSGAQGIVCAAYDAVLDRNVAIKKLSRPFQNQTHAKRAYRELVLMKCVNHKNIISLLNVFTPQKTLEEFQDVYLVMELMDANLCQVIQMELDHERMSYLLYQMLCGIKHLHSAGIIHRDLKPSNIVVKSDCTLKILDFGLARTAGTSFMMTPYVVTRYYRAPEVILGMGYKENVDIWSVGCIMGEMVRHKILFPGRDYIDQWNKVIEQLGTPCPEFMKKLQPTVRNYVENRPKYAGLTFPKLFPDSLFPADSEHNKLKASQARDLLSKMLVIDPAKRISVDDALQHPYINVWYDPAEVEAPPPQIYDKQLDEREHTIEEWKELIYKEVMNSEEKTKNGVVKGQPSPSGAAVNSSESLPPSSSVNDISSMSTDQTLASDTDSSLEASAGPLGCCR
RET(M918T), sequence (P07949 29-1114 M918T): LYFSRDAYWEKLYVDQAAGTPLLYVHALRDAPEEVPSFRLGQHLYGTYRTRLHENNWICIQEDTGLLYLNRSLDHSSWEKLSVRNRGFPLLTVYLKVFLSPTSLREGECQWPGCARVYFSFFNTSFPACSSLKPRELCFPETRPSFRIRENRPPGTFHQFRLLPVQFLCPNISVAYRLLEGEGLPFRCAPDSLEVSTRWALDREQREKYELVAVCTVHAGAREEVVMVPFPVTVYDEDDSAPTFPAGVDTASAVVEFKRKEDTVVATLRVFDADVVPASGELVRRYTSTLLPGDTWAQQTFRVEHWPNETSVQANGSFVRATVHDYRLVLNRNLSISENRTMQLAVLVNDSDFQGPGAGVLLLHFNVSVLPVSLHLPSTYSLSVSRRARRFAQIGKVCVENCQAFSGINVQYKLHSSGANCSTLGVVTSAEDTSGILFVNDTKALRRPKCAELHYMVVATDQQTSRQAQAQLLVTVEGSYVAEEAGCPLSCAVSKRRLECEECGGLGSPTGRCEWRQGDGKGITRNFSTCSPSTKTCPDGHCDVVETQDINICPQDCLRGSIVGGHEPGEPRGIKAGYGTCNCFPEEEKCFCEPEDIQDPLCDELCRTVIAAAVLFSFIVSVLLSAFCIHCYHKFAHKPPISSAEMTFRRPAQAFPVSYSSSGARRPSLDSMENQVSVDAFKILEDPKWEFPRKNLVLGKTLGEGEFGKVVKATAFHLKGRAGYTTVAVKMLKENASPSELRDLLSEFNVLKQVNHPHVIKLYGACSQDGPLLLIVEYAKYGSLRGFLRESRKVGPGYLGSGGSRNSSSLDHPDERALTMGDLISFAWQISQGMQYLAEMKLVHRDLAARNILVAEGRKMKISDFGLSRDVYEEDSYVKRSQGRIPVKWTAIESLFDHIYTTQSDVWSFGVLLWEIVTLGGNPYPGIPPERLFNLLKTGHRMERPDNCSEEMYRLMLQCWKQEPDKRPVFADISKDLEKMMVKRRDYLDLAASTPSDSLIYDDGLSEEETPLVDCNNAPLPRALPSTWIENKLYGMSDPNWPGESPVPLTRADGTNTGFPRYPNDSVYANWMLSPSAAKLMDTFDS

SMILES: COc1cc(F)ccc1-c1cc(Nc2cc(CS(C)(=N)=O)ccn2)ncc1F (centres unmarked) [VIP152]
- association with transcription-associated machinery (SPT6H and IWS1) and RPB3 (HG-3 cell line; 1 µM, 2 h, nuclear IP of CDK9): decreased association
- differentially co-localized proteins (HG-3 cell line; 1 µM, 2 h, nuclear IP of CDK9, LC-MS/MS): 226
- association with DDX21, Fold Change (HG-3 cell line; 1 µM, 2 h, nuclear IP of CDK9, proteomics): 1.47
- association of CDK9 with 7SK-RNA complex components (HEXIM1, MEPCE, LARP7) (HG-3 cell line; HG-3 and MEC-1, reciprocal nuclear co-immunoprecipitation of CDK9 and HEXIM1): decreased association
- inhibition at 10 µM (Dopamine D4.2): 32%
- % Inh. [1]: 6%
- inhibition at 10 µM (Prostanoid EP4): 24%
- % Inh. (Thyroid Hormone): 20%
- remaining binding at 0.1 µM (RET(M918T)): 100%
- remaining binding at 0.1 µM (RIPK4): 100%
- remaining binding at 0.1 µM (SRPK3): 100%
- remaining binding at 0.1 µM (TRKB): 100%
- remaining binding at 0.1 µM (VRK2): 97%
- remaining binding at 0.1 µM (ZAK): 100%
- remaining binding at 1 µM (BLK): 76%
- remaining binding at 1 µM (CAMK1): 78%
- remaining binding at 1 µM (CSNK1E): 89%
- remaining binding at 1 µM (EGFR(G719S)): 86%
- remaining binding at 1 µM (EPHB3): 100%
- remaining binding at 1 µM (HASPIN): 99%
- remaining binding at 1 µM (JNK3): 82%
- remaining binding at 1 µM (LATS2): 97%
- remaining binding at 1 µM (MERTK): 58%
